{"source": "patent US11642396B2", "about": "(priority 2013, dated 2023)", "origin": "cited, not measured here", "system": "H7N9 infection", "conditions": "human, in vivo"}
{"smiles": "CCOC(=O)C1=C[C@@H](OC(CC)CC)[C@H](NC(C)=O)[C@@H](N)C1", "note": "[oseltamivir]", "values": [{"measurement": "viral load in the respiratory tract of patients", "result": "reduce the viral load"}]}
